Data published in PubChem BioAssay AID1963437 (Molecular Pharmacology Branch, DTP, NCI, 2024).

Tested on: OVCAR-8 complex spheroid, growth inhibition
Assay: Anticancer human tumor OVCAR-8 cell line growth inhibition [Asc];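 further: spheroids exposed to agents for 7 days before readout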;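 on viability, T/C: percent viability relative to DMSO vehicle wells taken as 100%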
Settings: for IC50: curve of first compound; for viability, T/C: stronger effect = lower value; active means viability on the fitted dose curve at most 10% of control; inactive means the rest
Outline: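 Complex spheroids combining tumor cells with HUVEC endothelial cells and human MSCs, at 37 degrees C, 5% CO2; agents tested alone or combined, half-log dilutions from at or near clinical Cmax, or 10 microM if Cmax unknown.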

[1] = second compound 0.00316 µM, first compound 0.0316 µM
[2] = second compound 0.00316 µM, first compound 0.1 µM
[3] = second compound 0.00316 µM, first compound 0.316 µM
[4] = second compound 0.00316 µM, first compound 1 µM
[5] = second compound 0.01 µM, first compound 0.0316 µM
[6] = second compound 0.01 µM, first compound 0.1 µM
[7] = second compound 0.01 µM, first compound 0.316 µM
[8] = second compound 0.01 µM, first compound 1 µM
[9] = second compound 0.0316 µM, first compound 0.0316 µM
[10] = second compound 0.0316 µM, first compound 0.1 µM
[11] = second compound 0.0316 µM, first compound 0.316 µM
[12] = second compound 0.0316 µM, first compound 1 µM
[13] = second compound 0.1 µM, first compound 0.0316 µM
[14] = second compound 0.1 µM, first compound 0.1 µM
[15] = second compound 0.1 µM, first compound 0.316 µM
[16] = second compound 0.1 µM, first compound 1 µM
[17] = second compound 0.316 µM, first compound 0.0316 µM
[18] = second compound 0.316 µM, first compound 0.1 µM
[19] = second compound 0.316 µM, first compound 0.316 µM
[20] = second compound 0.316 µM, first compound 1 µM
[21] = second compound 1 µM, first compound 0.0316 µM
[22] = second compound 1 µM, first compound 0.1 µM
[23] = second compound 1 µM, first compound 0.316 µM
[24] = second compound 1 µM, first compound 1 µM
[25] = second compound 0.0316 µM, first compound 0.00316 µM
[26] = second compound 0.0316 µM, first compound 0.01 µM
[27] = second compound 0.1 µM, first compound 0.00316 µM
[28] = second compound 0.1 µM, first compound 0.01 µM
[29] = second compound 0.316 µM, first compound 0.00316 µM
[30] = second compound 0.316 µM, first compound 0.01 µM
[31] = second compound 1 µM, first compound 0.00316 µM
[32] = second compound 1 µM, first compound 0.01 µM

C=CC(=O)N1CCN(c2nc(=O)n(-c3c(C)ccnc3C(C)C)c3nc(-c4c(O)cccc4F)c(F)cc23)C(C)C1 (stereo unspecified) + CNC(C)C(=O)NC1CN(S(=O)(=O)c2cccc(S(=O)(=O)N3CCC4CCC(C(=O)NC(c5ccccc5)c5ccccc5)N4C(=O)C(NC(=O)C(C)NC)C3)c2)CCC2CCC(C(=O)NC(c3ccccc3)c3ccccc3)N2C1=O
inactive: viability, T/C [1] 105% | viability, T/C [2] 89.3% | viability, T/C [3] 105% | viability, T/C [4] 98.7% | viability, T/C (second compound 0.00316 µM, first compound 3.16 µM) 88.3% | viability, T/C (second compound 0.00316 µM, first compound 10 µM) 112% | viability, T/C [5] 96.9% | viability, T/C [6] 95% | viability, T/C [7] 83.6% | viability, T/C [8] 89.2% | viability, T/C (second compound 0.01 µM, first compound 3.16 µM) 90.6% | viability, T/C (second compound 0.01 µM, first compound 10 µM) 122% | viability, T/C [9] 94.3% | viability, T/C [10] 90.5% | viability, T/C [11] 91.2% | viability, T/C [12] 81.9% | viability, T/C (second compound 0.0316 µM, first compound 3.16 µM) 86.4% | viability, T/C (second compound 0.0316 µM, first compound 10 µM) 103% | viability, T/C [13] 85.8% | viability, T/C [14] 81.4% | viability, T/C [15] 89.7% | viability, T/C [16] 86.1% | viability, T/C (second compound 0.1 µM, first compound 3.16 µM) 80% | viability, T/C (second compound 0.1 µM, first compound 10 µM) 92.2% | viability, T/C [17] 80% | viability, T/C [18] 84.2% | viability, T/C [19] 107% | viability, T/C [20] 69.4% | viability, T/C (second compound 0.316 µM, first compound 3.16 µM) 79.6% | viability, T/C (second compound 0.316 µM, first compound 10 µM) 90.8% | viability, T/C [21] 68.4% | viability, T/C [22] 79.8% | viability, T/C [23] 79.1% | viability, T/C [24] 84.7% | viability, T/C (second compound 1 µM, first compound 3.16 µM) 65.5% | viability, T/C (second compound 1 µM, first compound 10 µM) 69.1%
> 10000 nM: IC50 (second compound 0.00316 µM) | IC50 (second compound 0.01 µM) | IC50 (second compound 0.0316 µM) | IC50 (second compound 0.1 µM) | IC50 (second compound 0.316 µM) | IC50 (second compound 1 µM)

CNC(C)C(=O)NC1CN(S(=O)(=O)c2cccc(S(=O)(=O)N3CCC4CCC(C(=O)NC(c5ccccc5)c5ccccc5)N4C(=O)C(NC(=O)C(C)NC)C3)c2)CCC2CCC(C(=O)NC(c3ccccc3)c3ccccc3)N2C1=O (stereo unspecified) + Cc1c(S(C)(=O)=O)c(-c2cc(F)cc(N3CCN(c4ccc(NS(=O)(=O)c5ccc(NC(CCN6CCC(C(=O)OCCCP(=O)(O)O)CC6)CSc6ccccc6)c(S(=O)(=O)C(F)(F)F)c5)cc4)CC3)c2)c(-c2ccc(Cl)cc2)n1C(C)C
inactive: viability, T/C [25] 97.5% | viability, T/C [26] 94.6% | viability, T/C [9] 88.4% | viability, T/C [10] 90.9% | viability, T/C [11] 67.5% | viability, T/C [12] 57.5% | viability, T/C [27] 92.2% | viability, T/C [28] 84.5% | viability, T/C [13] 80.8% | viability, T/C [14] 76.5% | viability, T/C [15] 64.5% | viability, T/C [16] 59.7% | viability, T/C [29] 106% | viability, T/C [30] 79.2% | viability, T/C [17] 86.8% | viability, T/C [18] 80.3% | viability, T/C [19] 58.9% | viability, T/C [20] 53.1% | viability, T/C [31] 123% | viability, T/C [32] 97.1% | viability, T/C [21] 86.8% | viability, T/C [22] 80.6% | viability, T/C [23] 59.4% | viability, T/C [24] 60.1% | viability, T/C (second compound 3.16 µM, first compound 0.00316 µM) 91.2% | viability, T/C (second compound 3.16 µM, first compound 0.01 µM) 86.8% | viability, T/C (second compound 3.16 µM, first compound 0.0316 µM) 84.7% | viability, T/C (second compound 3.16 µM, first compound 0.1 µM) 67.3% | viability, T/C (second compound 3.16 µM, first compound 0.316 µM) 57.5% | viability, T/C (second compound 3.16 µM, first compound 1 µM) 58.2% | viability, T/C (second compound 10 µM, first compound 0.00316 µM) 101% | viability, T/C (second compound 10 µM, first compound 0.01 µM) 78.2% | viability, T/C (second compound 10 µM, first compound 0.0316 µM) 78.9% | viability, T/C (second compound 10 µM, first compound 0.1 µM) 60.2% | viability, T/C (second compound 10 µM, first compound 0.316 µM) 52% | viability, T/C (second compound 10 µM, first compound 1 µM) 59.2%
> 1000 nM: IC50 (second compound 0.0316 µM) | IC50 (second compound 0.1 µM) | IC50 (second compound 0.316 µM) | IC50 (second compound 1 µM) | IC50 (second compound 3.16 µM) | IC50 (second compound 10 µM)

O=C(c1ccc(F)c(F)c1Nc1ccc(I)cc1F)N1CC(O)([C@@H]2CCCCN2)C1 + CNC(C)C(=O)NC1CN(S(=O)(=O)c2cccc(S(=O)(=O)N3CCC4CCC(C(=O)NC(c5ccccc5)c5ccccc5)N4C(=O)C(NC(=O)C(C)NC)C3)c2)CCC2CCC(C(=O)NC(c3ccccc3)c3ccccc3)N2C1=O
active: viability, T/C [16] 5.38% | viability, T/C [20] 2.09% | viability, T/C [24] 1.27%
548 nM: IC50 (second compound 0.316 µM)
969 nM: IC50 (second compound 0.0316 µM)
641 nM: IC50 (second compound 0.1 µM)
508 nM: IC50 (second compound 1 µM)
inactive: viability, T/C (second compound 0.00316 µM, first compound 0.00316 µM) 113% | viability, T/C (second compound 0.00316 µM, first compound 0.01 µM) 97% | viability, T/C [1] 153% | viability, T/C [2] 166% | viability, T/C [3] 232% | viability, T/C [4] 84.5% | viability, T/C (second compound 0.01 µM, first compound 0.00316 µM) 97.3% | viability, T/C (second compound 0.01 µM, first compound 0.01 µM) 101% | viability, T/C [5] 146% | viability, T/C [6] 185% | viability, T/C [7] 223% | viability, T/C [8] 98.7% | viability, T/C [25] 95.2% | viability, T/C [26] 99.8% | viability, T/C [9] 116% | viability, T/C [10] 163% | viability, T/C [11] 216% | viability, T/C [12] 47.5% | viability, T/C [27] 82.3% | viability, T/C [28] 82.2% | viability, T/C [13] 118% | viability, T/C [14] 168% | viability, T/C [15] 153% | viability, T/C [29] 70.8% | viability, T/C [30] 80.3% | viability, T/C [17] 90.4% | viability, T/C [18] 120% | viability, T/C [19] 108% | viability, T/C [31] 76.4% | viability, T/C [32] 94.9% | viability, T/C [21] 101% | viability, T/C [22] 106% | viability, T/C [23] 83.9%
> 1000 nM: IC50 (second compound 0.00316 µM) | IC50 (second compound 0.01 µM)
